Test results: patent US12559506B2, “Indazole based compounds and associated methods of use” (Arvinas Operations, Inc., priority 2021, dated 2026)
Like-named read-outs stand apart in the source and are kept apart here.

Biological target: T1, LRRK2 (endogenous, HiBit tagged) (Homo sapiens, UniProt Q5S007)
T1 construct: endogenous in cells; host or cells: HEK293 cells with HiBit knock-in at the endogenous LRRK2 locus, stably expressing firefly luciferase
Experiment: Endogenous LRRK2 degradation assay, endogenous gene C-terminally HiBit-tagged in HEK293 cells (Nano-Glo Dual Luciferase)
Format: cell-based
Conditions: endogenous HiBit-tagged LRRK2 in HEK293 cells
Procedure, shortened: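 LRRK2-HiBit quantified via Nano-Glo Dual Luciferase in HEK293 knock-in cells co-expressing firefly luciferase, after 24 h exposure to compound (1 μM final top, 1:3, 11 points). Values normalised to DMSO median per plate and curve-fitted; Alamar Blue viability run alongside.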

[1] = 24 hours treatment, read-out: **Endogenous WT Dmax (%)
[2] = 24 hours treatment, read-out: *Endogenous WT DC50
[3] = 24 hours treatment, read-out: Endogenous WT DC50
[4] = 24 hours treatment, read-out: Endogenous WT Dmax

T1 sequence (Q5S007 whole entry): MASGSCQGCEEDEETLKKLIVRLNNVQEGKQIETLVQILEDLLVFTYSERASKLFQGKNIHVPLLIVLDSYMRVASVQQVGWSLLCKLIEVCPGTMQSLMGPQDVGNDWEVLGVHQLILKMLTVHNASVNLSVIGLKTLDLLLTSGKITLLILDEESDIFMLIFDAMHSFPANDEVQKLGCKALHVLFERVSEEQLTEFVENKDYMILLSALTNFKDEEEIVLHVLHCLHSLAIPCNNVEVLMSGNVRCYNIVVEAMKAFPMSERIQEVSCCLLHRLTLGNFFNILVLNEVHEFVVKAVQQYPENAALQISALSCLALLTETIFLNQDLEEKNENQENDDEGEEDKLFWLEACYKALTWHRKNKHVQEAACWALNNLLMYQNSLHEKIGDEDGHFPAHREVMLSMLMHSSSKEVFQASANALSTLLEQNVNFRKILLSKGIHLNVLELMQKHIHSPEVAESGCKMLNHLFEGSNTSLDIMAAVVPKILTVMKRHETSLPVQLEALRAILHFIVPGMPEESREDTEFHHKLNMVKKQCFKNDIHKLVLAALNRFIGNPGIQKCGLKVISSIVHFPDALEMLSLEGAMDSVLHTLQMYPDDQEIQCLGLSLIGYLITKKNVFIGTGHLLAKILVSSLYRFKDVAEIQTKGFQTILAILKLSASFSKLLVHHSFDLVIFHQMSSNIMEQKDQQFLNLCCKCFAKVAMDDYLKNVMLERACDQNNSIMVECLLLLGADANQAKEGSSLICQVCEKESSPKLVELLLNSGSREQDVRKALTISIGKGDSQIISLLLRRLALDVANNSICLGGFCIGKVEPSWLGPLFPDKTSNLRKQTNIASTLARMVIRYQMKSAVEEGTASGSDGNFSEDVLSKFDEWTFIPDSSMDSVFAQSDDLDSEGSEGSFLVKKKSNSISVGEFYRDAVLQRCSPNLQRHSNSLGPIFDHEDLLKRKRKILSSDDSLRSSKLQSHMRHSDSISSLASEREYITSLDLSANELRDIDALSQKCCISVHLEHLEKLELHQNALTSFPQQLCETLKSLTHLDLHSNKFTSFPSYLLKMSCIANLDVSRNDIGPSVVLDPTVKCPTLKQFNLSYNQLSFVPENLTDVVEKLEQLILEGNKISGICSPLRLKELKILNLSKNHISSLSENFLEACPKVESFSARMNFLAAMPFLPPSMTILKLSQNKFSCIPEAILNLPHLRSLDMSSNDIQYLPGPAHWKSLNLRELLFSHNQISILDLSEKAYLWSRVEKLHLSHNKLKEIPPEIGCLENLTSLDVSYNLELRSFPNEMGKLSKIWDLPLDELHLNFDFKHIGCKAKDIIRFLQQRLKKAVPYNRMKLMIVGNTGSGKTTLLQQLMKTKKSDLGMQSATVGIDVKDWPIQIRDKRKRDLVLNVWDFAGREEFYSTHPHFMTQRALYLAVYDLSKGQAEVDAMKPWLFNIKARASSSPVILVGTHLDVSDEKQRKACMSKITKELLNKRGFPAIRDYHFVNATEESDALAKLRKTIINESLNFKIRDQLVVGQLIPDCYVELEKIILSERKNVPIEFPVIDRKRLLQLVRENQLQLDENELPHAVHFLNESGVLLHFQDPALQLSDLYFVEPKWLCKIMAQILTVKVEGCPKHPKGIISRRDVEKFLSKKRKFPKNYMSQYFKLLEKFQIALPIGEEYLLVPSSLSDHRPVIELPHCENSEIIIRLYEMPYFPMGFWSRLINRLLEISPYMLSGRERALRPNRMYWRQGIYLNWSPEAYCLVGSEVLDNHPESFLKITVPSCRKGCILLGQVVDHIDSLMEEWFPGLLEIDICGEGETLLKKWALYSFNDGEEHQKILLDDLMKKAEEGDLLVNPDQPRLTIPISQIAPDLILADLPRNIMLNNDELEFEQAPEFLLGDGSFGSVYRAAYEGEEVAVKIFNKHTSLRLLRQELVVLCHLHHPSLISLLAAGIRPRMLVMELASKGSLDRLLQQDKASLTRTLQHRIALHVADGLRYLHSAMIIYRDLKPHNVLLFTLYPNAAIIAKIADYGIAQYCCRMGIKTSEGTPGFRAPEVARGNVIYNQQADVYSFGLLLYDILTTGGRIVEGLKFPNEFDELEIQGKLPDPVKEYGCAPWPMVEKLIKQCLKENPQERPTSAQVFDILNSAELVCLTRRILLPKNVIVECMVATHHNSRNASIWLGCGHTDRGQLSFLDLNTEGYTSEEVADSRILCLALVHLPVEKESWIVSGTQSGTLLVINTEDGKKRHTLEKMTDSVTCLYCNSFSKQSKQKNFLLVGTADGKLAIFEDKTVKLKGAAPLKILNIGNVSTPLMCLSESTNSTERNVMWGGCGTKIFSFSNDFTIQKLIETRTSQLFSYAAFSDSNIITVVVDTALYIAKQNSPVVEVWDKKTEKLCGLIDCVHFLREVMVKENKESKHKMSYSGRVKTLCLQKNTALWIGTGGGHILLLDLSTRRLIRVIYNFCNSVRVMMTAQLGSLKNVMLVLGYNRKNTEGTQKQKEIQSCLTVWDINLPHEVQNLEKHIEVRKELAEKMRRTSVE

Row | Dmax [1] | DC50 [2] | Structure (SMILES) | further results
1 | ≥ 70% | < 0.01 µM | COc1c(N2CCN(C[C@H]3CC[C@H](CN4CCN(c5cc(-c6n[nH]c7ccc(OC8(C)CC8)cc67)ncn5)CC4)CC3)CC2)ccc2c1CN(C1CCC(=O)NC1=O)C2=O (stereo partly shown) [Compound 265, 3-[4-methoxy-1-oxo-5-(4-{[(1r,4r)-4-[(4-{6-[5-(1-methylcyclopropoxy)-1H-indazol-3-yl]pyrimidin-4-yl}piperazin-1-yl)methyl]cyclohexyl]methyl}piperazin-1-yl)-2,3-dihydro-1H-isoindol-2-yl]piperidine-2,6-dione] | –
2 | ≥ 70% | < 0.01 µM | COc1c(N2CCC(CN3CCN(CC4CCN(c5cc(-c6n[nH]c7cnc(OC8(C)CC8)cc67)ncn5)CC4)C[C@H]3C)CC2)ccc2c1CN(C1CCC(=O)NC1=O)C2=O (stereo partly drawn) [Compound 283, 3-[4-methoxy-5-(4-{[(2R)-2-methyl-4-[(1-{6-[5-(1-methylcyclopropoxy)-1H-pyrazolo[3,4-c]pyridin-3-yl]pyrimidin-4-yl}piperidin-4-yl)methyl]piperazin-1-yl]methyl}piperidin-1-yl)-1-oxo-2,3-dihydro-1H-isoindol-2-yl]piperidine-2,6-dione] | –
3 | 50 to 70% | < 0.01 µM | COc1c(N2CCC(O[C@H]3CC[C@H](CN4CCN(c5cc(-c6n[nH]c7cc(F)c(OC8(C)CC8)cc67)ncn5)CC4)CC3)CC2)ccc2c1CN(C1CCC(=O)NC1=O)C2=O (stereo partly shown) [Compound 280, 3-[4-methoxy-1-oxo-5-(4-{[(1r,4r)-4-[(4-{6-[6-fluoro-5-(1-methylcyclopropoxy)-1H-indazol-3-yl]pyrimidin-4-yl}piperazin-1-yl)methyl]cyclohexyl]oxy}piperidin-1-yl)-2,3-dihydro-1H-isoindol-2-yl]piperidine-2,6-dione] | –
4 | 50 to 70% | < 0.01 µM | CC1(Oc2ccc3n[nH]c(-c4cc(N5CCC(CO[C@H]6C[C@H](N7CCC(c8ccc9c(c8F)CN(C8CCC(=O)NC8=O)C9=O)CC7)C6)CC5)ncn4)c3c2)CC1 (stereo partly shown) [Compound 292, 3-(4-fluoro-1-oxo-5-{1-[(1r,3r)-3-[(1-{6-[5-(1-methylcyclopropoxy)-2H-indazol-3-yl]pyrimidin-4-yl}piperidin-4-yl)methoxy]cyclobutyl]piperidin-4-yl}-2,3-dihydro-1H-isoindol-2-yl)piperidine-2,6-dione] | –
5 | 50 to 70% | < 0.01 µM | C[C@H]1CN(C[C@H]2CC[C@H](OC3CCN(c4cc(-c5n[nH]c6ccc(OC7(C)CC7)cc56)ncn4)CC3)CC2)CCN1c1ccc2c(c1F)CN(C1CCC(=O)NC1=O)C2=O (stereo partly drawn) [Compound 353, 3-{4-fluoro-5-[(2S)-2-methyl-4-{[(1r,4r)-4-[(1-{6-[5-(1-methylcyclopropoxy)-1H-indazol-3-yl]pyrimidin-4-yl}piperidin-4-yl)oxy]cyclohexyl]methyl}piperazin-1-yl]-1-oxo-2,3-dihydro-1H-isoindol-2-yl}piperidine-2,6-dione] | –
6 | – | – | CC1(Oc2ccc3n[nH]c(-c4cc(N5CCC(CO[C@H]6CC[C@H](CN7CCN(c8ccc9c(c8)C(=O)N(C8CCC(=O)NC8=O)C9=O)CC7)CC6)CC5)ncn4)c3c2)CC1 (stereo partly shown) [Compound 60, 2-(2,6-dioxo-3-piperidyl)-5-[4-[[4-[[1-[6-[5-(1-methylcyclopropoxy)-2H-indazol-3-yl]pyrimidin-4-yl]-4-piperidyl]methoxy]cyclohexyl]methyl]piperazin-1-yl]isoindoline-1,3-dione] | Dmax (24 hours, read-out: **Endogenous WT Dmax (%)): ≥ 70%; DC50 (24 hours, read-out: *Endogenous WT DC50): < 0.01 µM
7 | ≥ 70% | < 0.01 µM | COc1c(N2CCC(CN3CCN(CC4CCN(c5cc(-c6n[nH]c7ccc(OC8(C)CC8)cc67)ncn5)CC4)C[C@@H]3C)CC2)ccc2c1CN(C1CCC(=O)NC1=O)C2=O (stereo partly drawn) [Compound 264, 3-[4-methoxy-5-(4-{[(2S)-2-methyl-4-[(1-{6-[5-(1-methylcyclopropoxy)-1H-indazol-3-yl]pyrimidin-4-yl}piperidin-4-yl)methyl]piperazin-1-yl]methyl}piperidin-1-yl)-1-oxo-2,3-dihydro-1H-isoindol-2-yl]piperidine-2,6-dione] | –
8 | ≥ 70% | < 0.01 µM | C[C@H]1CN(CC2CCN(c3ccc4c(c3F)CN(C3CCC(=O)NC3=O)C4=O)CC2)CCN1CC1CCN(c2cc(-c3n[nH]c4cnc(OC5(C)CC5)cc34)ncn2)CC1 (stereo partly drawn) [Compound 266, 3-[4-fluoro-5-(4-{[(3S)-3-methyl-4-[(1-{6-[5-(1-methylcyclopropoxy)-1H-pyrazolo[3,4-c]pyridin-3-yl]pyrimidin-4-yl}piperidin-4-yl)methyl]piperazin-1-yl]methyl}piperidin-1-yl)-1-oxo-2,3-dihydro-1H-isoindol-2-yl]piperidine-2,6-dione] | –
9 | ≥ 70% | < 0.01 µM | CC1(Oc2ccc3n[nH]c(-c4cc(N5CC(OC6CCN(CC7CCN(c8ccc9c(c8F)CN(C8CCC(=O)NC8=O)C9=O)CC7)CC6)C5)ncn4)c3c2)CC1 (stereo not shown) [Compound 289, 3-{4-fluoro-5-[4-({4-[(1-{6-[5-(1-methylcyclopropoxy)-2H-indazol-3-yl]pyrimidin-4-yl}azetidin-3-yl)oxy]piperidin-1-yl}methyl)piperidin-1-yl]-1-oxo-2,3-dihydro-1H-isoindol-2-yl}piperidine-2,6-dione] | –
10 | 50 to 70% | < 0.01 µM | C[C@H]1CN(CC2CCN(CC3CCN(c4cc(-c5n[nH]c6ccc(OC7(C)CC7)cc56)ncn4)CC3)CC2)CCN1c1ccc2c(c1F)CN(C1CCC(=O)NC1=O)C2=O (stereo partly drawn) [Compound 339, 3-{4-fluoro-5-[(2S)-2-methyl-4-({1-[(1-{6-[5-(1-methylcyclopropoxy)-1H-indazol-3-yl]pyrimidin-4-yl}piperidin-4-yl)methyl]piperidin-4-yl}methyl)piperazin-1-yl]-1-oxo-2,3-dihydro-1H-isoindol-2-yl}piperidine-2,6-dione] | –
11 | – | – | CC1(Oc2ccc3n[nH]c(-c4cc(N5CCC(CN6CCN(CC7CCN(c8ccc(F)c9c8CN(C8CCC(=O)NC8=O)C9=O)CC7)CC6)CC5)ncn4)c3c2)CC1 (stereo not shown) [Compound 214, 3-[7-fluoro-4-[4-[[4-[[1-[6-[5-(1-methylcyclopropoxy)-2H-indazol-3-yl]pyrimidin-4-yl]-4-piperidyl]methyl]piperazin-1-yl]methyl]-1-piperidyl]-1-oxo-isoindolin-2-yl]piperidine-2,6-dione] | DC50 [3]: < 0.01 µM; Dmax [4]: ≥ 70%
12 | 50 to 70% | < 0.01 µM | CC1(Oc2ccc3[nH]nc(-c4cc(N5CC[C@@H](CN6CCN(CC7CCN(c8ccc9c(c8F)CN(C8CCC(=O)NC8=O)C9=O)CC7)CC6)C5)ncn4)c3c2)CC1 (stereo partly drawn) [Compound 327, 3-(4-fluoro-5-{4-[(4-{[(3S)-1-{6-[5-(1-methylcyclopropoxy)-1H-indazol-3-yl]pyrimidin-4-yl}pyrrolidin-3-yl]methyl}piperazin-1-yl)methyl]piperidin-1-yl}-1-oxo-2,3-dihydro-1H-isoindol-2-yl)piperidine-2,6-dione] | –
13 | 50 to 70% | < 0.01 µM | COc1c(N2CC[C@@H](CN3CCN(CC4CCN(c5cc(-c6n[nH]c7ccc(OC8(C)CC8)cc67)ncn5)CC4)CC3)C2)ccc2c1CN(C1CCC(=O)NC1=O)C2=O (stereo partly drawn) [Compound 328, 3-{4-methoxy-5-[(3S)-3-({4-[(1-{6-[5-(1-methylcyclopropoxy)-1H-indazol-3-yl]pyrimidin-4-yl}piperidin-4-yl)methyl]piperazin-1-yl}methyl)pyrrolidin-1-yl]-1-oxo-2,3-dihydro-1H-isoindol-2-yl}piperidine-2,6-dione] | –
14 | 50 to 70% | < 0.01 µM | C[C@H]1CN(c2cc(-c3n[nH]c4ccc(OC5(C)CC5)cc34)ncn2)CCN1C[C@H]1CC[C@H](OC2CCN(c3ccc4c(c3F)CN(C3CCC(=O)NC3=O)C4=O)CC2)CC1 (stereo partly drawn) [Compound 348, 3-(4-fluoro-5-(4-(((1s,4r)-4-(((S)-2-methyl-4-(6-(5-(1-methylcyclopropoxy)-1H-indazol-3-yl)pyrimidin-4-yl)piperazin-1-yl)methyl)cyclohexyl)oxy)piperidin-1-yl)-1-oxoisoindolin-2-yl)piperidine-2,6-dione] | –
15 | – | – | CC1(Oc2cc3c(-c4cc(N5CCC(O[C@H]6C[C@H](OC7CCN(c8ccc9c(c8F)CN(C8CCC(=O)NC8=O)C9=O)CC7)C6)CC5)ncn4)n[nH]c3cn2)CC1 (stereo partly shown) [Compound 218, 3-[4-fluoro-5-[4-[3-[[1-[6-[5-(1-methylcyclopropoxy)-1H-pyrazolo[3,4-c]pyridin-3-yl]pyrimidin-4-yl]-4-piperidyl]oxy]cyclobutoxy]-1-piperidyl]-1-oxo-isoindolin-2-yl]piperidine-2,6-dione] | DC50 [3]: < 0.01 µM; Dmax [4]: 50 to 70%
16 | 50 to 70% | < 0.01 µM | CC1(Oc2cc3c(-c4cc(N5CCC(CN6CCC(F)(CN7CCN(c8ccc9c(c8F)CN(C8CCC(=O)NC8=O)C9=O)CC7)CC6)CC5)ncn4)n[nH]c3cn2)CC1 (stereo not shown) [Compound 343, 3-{4-fluoro-5-[4-({4-fluoro-1-[(1-{6-[5-(1-methylcyclopropoxy)-1H-pyrazolo[3,4-c]pyridin-3-yl]pyrimidin-4-yl}piperidin-4-yl)methyl]piperidin-4-yl}methyl)piperazin-1-yl]-1-oxo-2,3-dihydro-1H-isoindol-2-yl}piperidine-2,6-dione] | –

Row | Structure (SMILES) | Dmax [1] | DC50 [2] | further results
17 | COc1c(N2CCC(O[C@H]3C[C@H](CN4CCN(c5cc(-c6[nH]nc7ccc(OC8(C)CC8)cc67)ncn5)CC4)C3)CC2)ccc2c1CN(C1CCC(=O)NC1=O)C2=O (stereo partly shown) [Compound 293, 3-(4-methoxy-1-oxo-5-{4-[(1r,3r)-3-[(4-{6-[5-(1-methylcyclopropoxy)-2H-indazol-3-yl]pyrimidin-4-yl}piperazin-1-yl)methyl]cyclobutoxy]piperidin-1-yl}-2,3-dihydro-1H-isoindol-2-yl)piperidine-2,6-dione] | 50 to 70% | < 0.01 µM | –
